Results published in PubChem BioAssay AID1259408 (Genetic Toxicology Data Bank (GENE-TOX), 2018).
The source made the active and inactive calls. No rule for the calls is given here.

Test system: GENE-TOX genotoxicity assays, various organisms and cells
Experiment: GENE-TOX mutagenicity studies
Conditions: for call: Assay Type: In vivo carcinogenicity studies
Description: GENE-TOX provides genetic toxicology (mutagenicity) test data from expert peer review of open scientific literature for more than 3,000 chemicals from the United States Environmental Protection Agency (EPA). GENE-TOX was established to select assay systems for evaluation, review data in the scientific literature, and recommend proper testing protocols and evaluation procedures for these systems.
GENE-TOX covers the years 1991 - 1998. It is no longer updated.
This is an archive assay for GENE-TOX mutagenicity studies.

[1] = Species/Cell Type: Drosophila melanogaster, Assay Type: Sex-linked recessive lethal gene mutation, Assay Code: SRLT, Evaluation Type: Evaluation A (Pre-1980)
[2] = Species/Cell Type: Salmonella typhimurium (one or more of the five standard strains: TA98, TA100, TA1535, TA1537, and TA1538), Assay Type: Histidine reverse gene mutation, Ames assay, Assay Code: SALT, Evaluation Type: Evaluation A (Pre-1980)
[3] = Species/Cell Type: Nonhuman, Assay Type: Sister-chromatid exchange (SCE) in vivo, Assay Code: SC3T, Evaluation Type: Evaluation B (Post-1980)
[4] = Species/Cell Type: Mammalian polychromatic erythrocytes, Assay Type: Micronucleus test, chromosome aberrations, Assay Code: MNTT, Evaluation Type: Evaluation B (Post-1980)
[5] = Species/Cell Type: Nonhuman, Assay Type: Sister-chromatid exchange (SCE) in vitro, Assay Code: SC2+D, Dose Response: With dose response, Evaluation Type: Evaluation B (Post-1980)
[6] = Species/Cell Type: Nonhuman, Assay Code: CCG+, Evaluation Type: Evaluation A (Pre-1980)
[7] = Species/Cell Type: Human lymphocytes, Assay Type: Sister-chromatid exchange (SCE) in vivo, Assay Code: SCY+, Evaluation Type: Evaluation B (Post-1980)
[8] = Species/Cell Type: Mouse, Sex: Male, Assay Type: Sperm morphology, Assay Code: SPI-, Evaluation Type: Evaluation A (Pre-1980)
[9] = Species/Cell Type: Saccharomyces cerevisiae, Assay Type: Mitotic recombination or gene conversion, Assay Code: YEC+, Evaluation Type: Evaluation A (Pre-1980)

With `CCN(CC)CCn1nc2c3c(c(CO)ccc31)Sc1ccccc1-2` the mutagenic call [1] was “no conclusion”, the mutagenic call (Species/Cell Type: Mouse lymphoma (L5178Y) cells, Assay Type: Forward gene mutation at the thymidine kinase (TK) locus, chromosome aberrations, Assay Code: L51+, Evaluation Type: Evaluation A (Pre-1980)) was “active; positive” and the mutagenic call (Species/Cell Type: Neurospora crassa, Assay Type: Forward gene mutation, Assay Code: NEF+, Evaluation Type: Evaluation A (Pre-1980)) was “active; positive”.

With `CC(=O)Nc1ccccc1` the mutagenic call (Species/Cell Type: Human, Assay Type: Sister-chromatid exchange (SCE) in vitro, Assay Code: SC1T, Evaluation Type: Evaluation B (Post-1980)) was “no conclusion”, the mutagenic call [2] was “no conclusion” and the mutagenic call (Species/Cell Type: Salmonella typhimurium, Assay Type: Forward and reverse gene mutation, host-mediated assay, Assay Code: HMA-, Evaluation Type: Evaluation A (Pre-1980)) was “inactive; negative”.

In the case of `COc1ccc2c(c1)C(=O)N(CCc1ccc(S(=O)(=O)NC(=O)NC3CCCCC3)cc1)C(=O)C2(C)C`, the mutagenic call [3] is reported as “no conclusion”.

`CCCCNCCCC` was tested, and the mutagenic call (Species/Cell Type: Nonhuman, Assay Type: Chromosome aberrations in vitro, Assay Code: CY&+D, Dose Response: With dose response, Evaluation Type: Evaluation A (Pre-1980)) was “active; positive” and the mutagenic call (Species/Cell Type: Nonhuman, Assay Type: Sister-chromatid exchange (SCE) in vitro, Assay Code: SC2+, Evaluation Type: Evaluation A (Pre-1980)) was “active; positive”.

With `Nc1ccccc1N` the mutagenic call (Species/Cell Type: Allium cepa, Assay Type: Chromosome aberrations, Assay Code: ALC+, Evaluation Type: Evaluation A (Pre-1980)) was “active; positive”, the mutagenic call (Species/Cell Type: Mammalian polychromatic erythrocytes, Assay Type: Micronucleus test, chromosome aberrations, Assay Code: MNT+, Evaluation Type: Evaluation B (Post-1980)) was “active; positive” and the mutagenic call (Species/Cell Type: Neurospora crassa, Assay Type: Aneuploidy, chromosome aberrations, Assay Code: NEN-, Evaluation Type: Evaluation A (Pre-1980)) was “inactive; negative”. For the same compound, the mutagenic call (Species/Cell Type: Rodents, Sex: Male, Assay Type: Dominant lethal test, Assay Code: DLT-, Evaluation Type: Evaluation A (Pre-1980)) was “inactive; negative”.

With `C=CC1=C(C)/C(=C/c2[nH]c(Cc3[nH]c(/C=C4\NC(=O)C(C)=C4C=C)c(C)c3CCC(=O)O)c(CCC(=O)O)c2C)NC1=O` the mutagenic call (Species/Cell Type: Human lymphocytes, Assay Type: Sister-chromatid exchange (SCE) in vitro, Assay Code: SCL-, Evaluation Type: Evaluation A (Pre-1980)) was “inactive; negative” and the mutagenic call (Species/Cell Type: Human, Assay Type: Sister-chromatid exchange (SCE) in vitro, Assay Code: SC1-, Evaluation Type: Evaluation A (Pre-1980)) was “inactive; negative”.

In the case of `CN(C)C(CSC(N)=O)CSC(N)=O`, the mutagenic call [4] is reported as “no conclusion” and the mutagenic call (Species/Cell Type: Nonhuman bone marrow, Assay Type: Chromosome aberrations, in vivo, Assay Code: CY#-, Evaluation Type: Evaluation A (Pre-1980)) is reported as “inactive; negative”.

`CC(=O)ONC(=O)c1ccc2ccccc2c1` was tested, and the mutagenic call [5] was “active; positive”.

For `CC(=O)OCC[C@H](C=O)c1c(O)cc2c(c1O)C(=O)c1c(O)cc(O)cc1C2=O`, the mutagenic call (Species/Cell Type: Salmonella typhimurium (one or more of the five standard strains: TA98, TA100, TA1535, TA1537, and TA1538), Assay Type: Histidine reverse gene mutation, Ames assay, Assay Code: SAL+*, Activation: With metabolic activation, Evaluation Type: Evaluation A (Pre-1980)) was “active; positive”.

In the case of `CN=C(N)N`, the mutagenic call (Species/Cell Type: Human diploid fibroblasts, Assay Type: Unscheduled DNA synthesis (UDS) in vitro, DNA effects, Assay Code: UDH-, Evaluation Type: Evaluation A (Pre-1980)) is reported as “inactive; negative”.

For `CCCCCCN(N=O)/C(N)=N/[N+](=O)[O-]`, the mutagenic call [2] was “no conclusion”.

With `CC(C)CCC[C@@H](C)[C@H]1CC[C@H]2[C@@H]3CC=C4C[C@@H](OC(=O)Cc5ccc(N(CCCl)CCCl)cc5)CC[C@]4(C)[C@H]3CC[C@]12C` the call [6] was “active; positive”.

With `Cc1cc(O)c2c(c1O)C(=O)C13C(=C2O)C(=O)C2C(O)C1C1C(O)C3C(=O)C3=C(O)c4c(O)cc(C)c(O)c4C(=O)C321` (stereo not drawn) the mutagenic call (Species/Cell Type: Bacillus subtilis (H17 vs M45), Assay Type: Rec-assay, spot test, DNA effects (bacterial DNA repair), Assay Code: REW+, Evaluation Type: Evaluation A (Pre-1980)) was “active; positive”, the mutagenic call (Species/Cell Type: Human lymphocytes or leukocytes, Assay Type: Chromosome aberrations in vitro, Assay Code: CY7+, Evaluation Type: Evaluation A (Pre-1980)) was “active; positive” and the call (Species/Cell Type: Nonhuman, Assay Code: CCG+L, Evaluation Type: Evaluation A (Pre-1980)) was “active; positive”.

For `CC(C)CCC[C@@H](C)[C@H]1CC[C@H]2[C@@H]3CC=C4C[C@@H](O)CC[C@]4(C)[C@H]3CC[C@]12C`, the mutagenic call (Species/Cell Type: Syrian hamster embryo (SHE) cells, Assay Type: Cell transformation, clonal assay, Assay Code: CTC-, Evaluation Type: Evaluation A (Pre-1980)) was “inactive; negative”.

In the case of `CC(C(=O)O)c1cccc(C(=O)c2ccccc2)c1` (stereo not drawn), the mutagenic call [7] is reported as “active; positive”.

`Cc1ccc2cc3c(ccc4ccccc43)c3c2c1C(O)C3O` (stereo not drawn) was tested, and the mutagenic call (Species/Cell Type: Mouse prostate cells, Assay Type: Cell transformation, Assay Code: CTM+D, Dose Response: With dose response, Evaluation Type: Evaluation A (Pre-1980)) was “active; positive”.

In the case of `COP(=S)(Oc1cc(Cl)c(Br)cc1Cl)c1ccccc1` (stereo not drawn), the mutagenic call (Species/Cell Type: Nonhuman, Assay Type: Sister-chromatid exchange (SCE) in vitro, Assay Code: SC2+, Evaluation Type: Evaluation B (Post-1980)) is reported as “active; positive”.

`[CH3][Hg][O]C(C)=O` was tested, and the mutagenic call (Species/Cell Type: Mammalian polychromatic erythrocytes, Assay Type: Micronucleus test, chromosome aberrations, Assay Code: MNTT, Evaluation Type: Evaluation A (Pre-1980)) was “no conclusion” and the mutagenic call [8] was “inactive; negative”.

`COCCOS(C)(=O)=O` was tested, and the mutagenic call (Species/Cell Type: Arabidopsis species, Assay Type: Gene mutation, Assay Code: ARM+D, Dose Response: With dose response, Evaluation Type: Evaluation A (Pre-1980)) was “active; positive” and the mutagenic call (Species/Cell Type: Hordeum vulgare (barley), Assay Type: Chromosome aberrations, Assay Code: HOC+D, Dose Response: With dose response, Evaluation Type: Evaluation A (Pre-1980)) was “active; positive”.

For `Cc1cc(N)c(N)cc1C`, the mutagenic call [4] was “no conclusion”.

For `COc1ccc(C(=O)/C(Br)=C/C(=O)O)cc1`, the mutagenic call (Species/Cell Type: Human bone marrow, Assay Type: Chromosome aberrations in vivo, Assay Code: CY5+, Evaluation Type: Evaluation A (Pre-1980)) was “active; positive” and the mutagenic call (Species/Cell Type: Nonhuman bone marrow, Assay Type: Chromosome aberrations, in vivo, Assay Code: CY#+D, Dose Response: With dose response, Evaluation Type: Evaluation A (Pre-1980)) was “active; positive”.

`Nc1ccc(Br)cc1` was tested, and the mutagenic call [8] was “inactive; negative” and the mutagenic call [3] was “no conclusion”.

With `C=O` the mutagenic call (Species/Cell Type: Chinese hamster ovary (CHO) cells, Assay Type: Forward gene mutation at the HPRT locus, Assay Code: CHOT, Evaluation Type: Evaluation B (Post-1980)) was “no conclusion”, the mutagenic call (Species/Cell Type: Drosophila melanogaster, Assay Type: Sex-linked recessive lethal gene mutation, Assay Code: SRL+, Evaluation Type: Evaluation A (Pre-1980)) was “active; positive” and the mutagenic call (Species/Cell Type: Drosophila melanogaster, Sex: Male, Assay Type: Heritable translocation test, chromosome aberrations, Assay Code: DHT+, Evaluation Type: Evaluation A (Pre-1980)) was “active; positive”. For the same compound, the mutagenic call (Species/Cell Type: Escherichia coli polA (W3119 vs P3478), Assay Type: Rec-assay, DNA effects (bacterial DNA repair), Assay Code: RE1+, Evaluation Type: Evaluation A (Pre-1980)) was “active; positive”, the mutagenic call (Species/Cell Type: Human diploid fibroblasts, Assay Type: Unscheduled DNA synthesis (UDS) in vitro, DNA effects, Assay Code: UDHT, Evaluation Type: Evaluation A (Pre-1980)) was “no conclusion” and the mutagenic call (Species/Cell Type: Human lymphocytes, Assay Type: Sister-chromatid exchange (SCE) in vitro, Assay Code: SCL+D, Dose Response: With dose response, Evaluation Type: Evaluation B (Post-1980)) was “active; positive”. For the same compound, the mutagenic call [7] was “active; positive”, the mutagenic call (Species/Cell Type: Human, Assay Type: Sister-chromatid exchange (SCE) in vitro, Assay Code: SC1+D, Dose Response: With dose response, Evaluation Type: Evaluation B (Post-1980)) was “active; positive” and the mutagenic call [4] was “no conclusion”. For the same compound, the mutagenic call (Species/Cell Type: Neurospora crassa, Assay Type: Reverse gene mutation, Assay Code: NER+, Evaluation Type: Evaluation A (Pre-1980)) was “active; positive”, the call [6] was “active; positive” and the mutagenic call [5] was “active; positive”. For the same compound, the mutagenic call [9] was “active; positive” and the mutagenic call (Species/Cell Type: Saccharomyces cerevisiae, Assay Type: Reverse gene mutation, Assay Code: YER+, Evaluation Type: Evaluation A (Pre-1980)) was “active; positive”.

`Oc1c(Cl)cccc1Cl` was tested, and the mutagenic call (Species/Cell Type: Allium cepa, Assay Type: Chromosome aberrations, Assay Code: ALC-, Evaluation Type: Evaluation A (Pre-1980)) was “inactive; negative”.

For `CC(=O)C1COC(O)C1C` (stereo not drawn), the mutagenic call [5] was “active; positive”.

`CN=c1ccc2cc3ccc(NC)cc3oc-2c1` was tested, and the mutagenic call [1] was “no conclusion”.

In the case of `Nc1ccc2c(S(=O)(=O)O)cccc2c1S(=O)(=O)O`, the mutagenic call [2] is reported as “no conclusion”.

`COP(=O)(OC)O/C(C)=C/C(=O)N(C)C` was tested, and the mutagenic call [5] was “active; positive” and the mutagenic call [9] was “active; positive”.

`Cc1cc2cc3cc(C)c(N)cc3nc2cc1N` was tested, and the mutagenic call (Species/Cell Type: Mammalian cell culture, nonhuman, Assay Type: Micronucleus test in vitro, chromosome aberrations, Assay Code: MN&+, Evaluation Type: Evaluation A (Pre-1980)) was “active; positive” and the mutagenic call [9] was “active; positive”.

With `CN(C#N)N=O` the mutagenic call (Species/Cell Type: Nonhuman, Assay Type: Chromosome aberrations in vitro, Assay Code: CY&+, Evaluation Type: Evaluation A (Pre-1980)) was “active; positive”, the mutagenic call (Species/Cell Type: Salmonella typhimurium (one or more of the five standard strains: TA98, TA100, TA1535, TA1537, and TA1538), Assay Type: Histidine reverse gene mutation, Ames assay, Assay Code: SAL+, Evaluation Type: Evaluation A (Pre-1980)) was “active; positive” and the mutagenic call (Species/Cell Type: Syrian hamster embryo (SHE) cells, Assay Type: Cell transformation, clonal assay, Assay Code: CTC+, Evaluation Type: Evaluation A (Pre-1980)) was “active; positive”.
